According to patent US20090306373A1, “4,7-DIHYDROTHIENO[2,3-B]PYRIDINE COMPOUNDS AND PHARMACEUTICAL COMPOSITIONS” (priority 2005, published 2009):

Test system: alpha-MyHC
Assay: alpha-MyHC cytoblot in neonatal rat ventricular myocytes (NRVM)
Format: cell-based
Details: Rattus norvegicus, Ventricular myocyte, Table 1, 72 hours, concentration giving 50% of maximum response
Description: In vitro activity of each compound is measured using the alpha-MyHC cytoblot process. Briefly, neonatal rat ventricular myocytes (NRVM) at 120,000 cells/ml in HyQ DME/High modified culture media supplemented with 10% charcoal/dextran treated FBS, 0.1% Nutridoma-SP, 1:100 MEM non-essential amino acids, 1:50 MEM amino acids solution w/o L-Gln, 1 mM sodium pyruvate and 1:100 P/S/G, are plated on gelatin coated sterile 384-well plates (Costar 3712) at 6,000 cells per well. Cells are incubated overnight at 37° C. in 5% CO2 100% humidity. Following overnight growth the media is changed to HyQ DME/High modified culture media supplemented with 0.3% Nutridoma-SP, 1:100 MEM non-essential amino acids, 1:50 MEM amino acids solution w/o L-Gln, 1 mM sodium pyruvate and 1:100 P/S/G. Cells are then dosed with serial dilutions of each compound in DMSO. Each concentration in the dose range is dosed in quadruplicate. Dosing is done in such a way so that the final DMSO concentration was 0.44%. Compound dilutions are 3-fold with the final top concentration of 10 uM. […] Following dosing, the cells are incubated for 72 hours at 37° C. in 5% CO2 100% humidity and then processed with the cytoblot method. Briefly, cell media is aspirated and cell monolayers washed with PBS and fixed with 100% methanol for 30 minutes. Fixed cells are then blocked with PBS, 0.05% Tween-20, 1% BSA, for 1 hour. Following blocking, cells are incubated with primary alpha-MyHC-specific antibody (1:30 dilution of BA-G5 hybridoma conditioned media, ATCC HB276) for 1 hour. Following incubation with the primary antibody, cells are washed with PBS, 0.05% Tween-20, 1% BSA and incubated with secondary antibody (1:1000 dilution, goat-anti-mouse HRP, Southern Biotech, 1031-05) for 1 hour. Following incubation with the secondary antibody, wells are washed and incubated in SuperSignal, West Dura HRP-luminescence substrate for 30 seconds under shaking at room temperature. Luminescence is measured using a Packard Fusion plate reader. […] RLU values are converted into percent fraction of low control and dose responses are fitted to a sigmoidal 4-parameter equation (XLFit, IDBS) where the EC50 and Max Plateau values were extracted. […] Max Plateau is the […] maximum value determined by the dose response fit.

`CC(=O)C1=C(C)Nc2sc(C(=O)c3cccc([N+](=O)[O-])c3)c(N)c2C1c1ccccc1Cl` (centres unmarked) [Compound 4, 1-[3-amino-4-(2-chloro-phenyl)-6-methyl-2-(3-nitro-benzoyl)-4,7-dihydro-thieno[2,3-b]pyridin-5-yl]-ethanone] was tested, and the EC50 was 85.7 nM.

Same assay, conditions: Table 1, 72 hours, concentration giving 50% of maximum response

For `CCC(=O)C1=C(CC)Nc2sc(C(=O)c3ccc(Cl)c(Cl)c3)c(N)c2C1c1ccccc1F` (racemic) [Compound 39, 1-[3-amino-2-(3,4-dichloro-benzoyl)-6-ethyl-4-(2-fluoro-phenyl)-4,7-dihydro-thieno[2,3b]pyridin-5-yl]-propan-1-one], the EC50 was 17.1 nM.

Same assay, conditions: Table 1, 72 hours, fitted maximum, percent fraction of low control (vehicle), in %

In order of falling “Max Plateau” value:
1. CCC(=O)C1=C(CC)Nc2sc(C(=O)c3cccc(F)c3)c(N)c2C1c1ccccc1 (centres unmarked) [Compound 49]  299.18 ± 42.31
2. CC(=O)C1=C(C)Nc2sc(C(=O)c3cccc(Br)c3)c(N)c2C1c1ccccc1 (centres unmarked) [Compound 6]  289.34 ± 70.69
3. CCC(=O)C1=C(CC)Nc2sc(C(=O)c3ccc(Cl)c(Cl)c3)c(N)c2C1c1ccccc1Cl (centres unmarked) [Compound 38]  288.93 ± 52.81
4. CC(=O)C1=C(C)Nc2sc(C(=O)c3cccnc3)c(N)c2C1c1ccccc1 (centres unmarked) [Compound 5]  286.43 ± 42.04
5. CC(=O)C1=C(C)Nc2sc(C(=O)c3ccc(Cl)c(Cl)c3)c(N)c2C1c1ccc(O)cc1Cl (centres unmarked) [Compound 29]  281.88 ± 32.78
6. CC(=O)C1=C(C)Nc2sc(C(=O)c3ccc(Cl)c(Cl)c3)c(N)c2C1c1ccc(O)cc1 (centres unmarked) [Compound 23]  277.53 ± 33.46
7. CCC(=O)C1=C(CC)Nc2sc(C(=O)c3ccc(Cl)c(Cl)c3)c(N)c2C1c1ccccc1F (racemic) [Compound 39, 1-[3-amino-2-(3,4-dichloro-benzoyl)-6-ethyl-4-(2-fluoro-phenyl)-4,7-dihydro-thieno[2,3b]pyridin-5-yl]-propan-1-one]  272.61 ± 37.32
8. CC(=O)C1=C(C)Nc2sc(C(=O)c3ccccc3)c(N)c2C1c1ccccc1F (centres unmarked) [Compound 24]  260.35 ± 43.53
9. CC(=O)C1=C(C)Nc2sc(C(=O)c3ccccc3)c(N)c2C1c1ccncc1 (centres unmarked) [Compound 19]  260.00 ± 36.06
10. CCC(=O)C1=C(CC)Nc2sc(C(=O)c3ccc(Cl)c(Cl)c3)c(N)c2C1c1ccccc1 (centres unmarked) [Compound 36]  256.56 ± 24.93
11. CC(=O)C1=C(C)Nc2sc(C(=O)c3ccccc3)c(N)c2C1c1ccccc1 (centres unmarked) [Compound 3]  250.88 ± 32.62
12. CCC(=O)C1=C(CC)Nc2sc(C(=O)c3ccc(Cl)c(Cl)c3)c(N)c2C1c1c(F)cccc1Cl (centres unmarked) [Compound 40]  244.87 ± 7.92
13. CC(=O)C1=C(C)Nc2sc(C(=O)c3ccccc3)c(N)c2C1c1ccc(F)cc1 (centres unmarked) [Compound 37]  227.92 ± 12.46
14. CC(=O)C1=C(C)Nc2sc(C(=O)c3ccc(Cl)c(Cl)c3)c(N)c2C1c1ccccc1F (centres unmarked) [Compound 27]  220.13 ± 23.10
15. COc1ccccc1C1C(C(C)=O)=C(C)Nc2sc(C(=O)c3ccccc3)c(N)c21 (centres unmarked) [Compound 18]  215.25 ± 44.08
16. CC(=O)C1=C(C)Nc2sc(C(=O)c3ccncc3)c(N)c2C1c1ccccc1 (centres unmarked) [Compound 10]  210.00 ± 36.06
17. CC(=O)C1=C(C)Nc2sc(C(=O)c3ccc(Cl)c(Cl)c3)c(N)c2C1c1ccccc1 (centres unmarked) [Compound 2]  207.74 ± 23.00
18. CC(=O)C1=C(C)Nc2sc(C(=O)c3ccccc3)c(N)c2C1c1ccc(Cl)cc1 (centres unmarked) [Compound 21]  193.20 ± 49.26
19. CC(=O)C1=C(C)Nc2sc(C(=O)c3ccc(Cl)c(Cl)c3)c(N)c2C1c1ccc(C(F)(F)F)cc1 (centres unmarked) [Compound 48]  190.81 ± 37.09
20. CC(=O)C1=C(C)Nc2sc(C(=O)c3ccc(Cl)c(Cl)c3)c(N)c2C1c1ccc(F)cc1 (centres unmarked) [Compound 50]  190.79 ± 27.94
21. CC(=O)C1=C(C)Nc2sc(C(=O)c3ccccc3)c(N)c2C1c1ccc(C(F)(F)F)cc1 (centres unmarked) [Compound 44]  186.67 ± 11.55
22. CC(=O)C1=C(C)Nc2sc(C(=O)c3ccccc3)c(N)c2C1C1CCCCC1 (centres unmarked) [Compound 26]  185.33 ± 55.04
23. CC(=O)C1=C(C)Nc2sc(C(=O)c3ccc(Cl)c(Cl)c3)c(N)c2C1c1ccccc1O (centres unmarked) [Compound 34]  184.69 ± 15.76
24. COc1ccc(C2C(C(C)=O)=C(C)Nc3sc(C(=O)c4ccccc4)c(N)c32)cc1 (centres unmarked) [Compound 14]  182.73 ± 26.95
25. CC(=O)C1=C(C)Nc2sc(C(=O)c3ccc(Cl)c(Cl)c3)c(N)c2C1c1cccs1 (centres unmarked) [Compound 41]  178.47 ± 7.82
26. CC(=O)C1=C(C)Nc2sc(C(=O)c3ccc(Cl)c(Cl)c3)c(N)c2C1c1ccc(Br)cc1 (centres unmarked) [Compound 22]  174.35 ± 23.39
27. CC(=O)C1=C(C)Nc2sc(C(=O)c3ccc(Cl)c(Cl)c3)c(N)c2C1c1ccc(Cl)c(Cl)c1 (centres unmarked) [Compound 47]  173.47 ± 25.64
28. CC(=O)C1=C(C)Nc2sc(C(=O)c3ccc(C)c(C)c3)c(N)c2C1c1ccccc1 (centres unmarked) [Compound 8]  172.29 ± 9.66
29. CC(=O)C1=C(C)Nc2sc(C(=O)c3ccccn3)c(N)c2C1c1ccccc1 (centres unmarked) [Compound 16]  163.33 ± 32.15
30. CC(=O)C1=C(C)Nc2sc(C(=O)c3ccc(Cl)c(Cl)c3)c(N)c2C1c1ccc[nH]1 (centres unmarked) [Compound 42]  160.56 ± 20.02
31. CC(=O)C1=C(C)Nc2sc(C(=O)c3ccc(Cl)c(Cl)c3)c(N)c2C1c1cc(Cl)cc(Cl)c1 (centres unmarked) [Compound 33]  143.15 ± 21.22
32. CC(=O)C1=C(C)Nc2sc(C(=O)c3ccccc3)c(N)c2C1c1cccnc1 (centres unmarked) [Compound 20]  127.35 ± 23.71
33. COc1cccc(C2C(C(C)=O)=C(C)Nc3sc(C(=O)c4ccccc4)c(N)c32)c1 (centres unmarked) [Compound 15]  126.50 ± 24.27
34. CC(=O)C1=C(C)Nc2sc(C(=O)c3ccc(Cl)c(Cl)c3)c(N)c2C1c1ccc(C)cc1 (centres unmarked) [Compound 45]  108.63 ± 9.14
35. CC(=O)C1=C(C)Nc2sc(C(=O)c3cccc([N+](=O)[O-])c3)c(N)c2C1c1ccc(C(=O)O)cc1 (centres unmarked) [Compound 9]  100.00 ± 0.00
36. Nc1c(C(=O)c2ccccc2)sc2c1C(c1ccccc1)C(C(=O)c1ccccc1)=C(c1ccccc1)N2 (centres unmarked) [Compound 30]  100.00 ± 0.00
37. CC(=O)C1=C(C)Nc2sc(C(=O)c3ccc(Cl)c(Cl)c3)c(N)c2C1c1ccc(C(C)(C)C)cc1 (centres unmarked) [Compound 32]  100.00 ± 0.00
38. CC(C)C(=O)C1=C(C(C)C)Nc2sc(C(=O)c3ccc(Cl)c(Cl)c3)c(N)c2C1c1ccccc1 (centres unmarked) [Compound 46]  98.33 ± 4.08

Same assay, conditions: Table 2, 72 hours, fitted maximum, percent fraction of low control (vehicle), in %

In order of falling “Max Plateau” value:
1. CCC1=C(C(=O)OC)C(c2ccnc(F)c2)c2c(sc(C(=O)c3cccc(Cl)c3)c2N)N1 (racemic) [Compound 175]  289.91
2. CCC1=C(C(=O)OC(C)CC)C(c2ccccc2F)c2c(sc(C(=O)c3ccc(Cl)c(Cl)c3)c2N)N1 (single isomer, unassigned) [Compound 163]  224.85
3. CCC1=C(C(=O)OC(C)CC)C(c2ccccc2F)c2c(sc(C(=O)c3cccc(C#N)c3)c2N)N1 (single isomer, unassigned) [Compound 166]  219.07
4. COC(=O)C1=C(C2CC2)Nc2sc(C(=O)c3cccc(Cl)c3)c(N)c2C1c1ccnc(F)c1 (racemic) [Compound 176]  218.25
5. CCOC(=O)C1=C(CC)Nc2sc(C(=O)c3ccc(F)c(CC(=O)OC)c3)c(N)c2C1c1ccccc1 (racemic) [Compound 194]  188.67
6. CCC1=C(C(=O)OC(C)CC)C(c2ccccc2F)c2c(sc(C(=O)c3ccc(Cl)c(Cl)c3)c2N)N1 (single isomer, unassigned) [Compound 162]  183.22
7. COC(=O)C1=C(C(C)C)Nc2sc(C(=O)c3cccc(C#N)c3)c(N)c2C1c1ccccc1F (racemic) [Compound 177]  162.75

Same assay, conditions: Table 3, 72 hours, fitted maximum, percent fraction of low control (vehicle), in %

In order of falling “Max Plateau” value:
1. CCNC(=O)C1=C(C)Nc2sc(C(=O)c3ccc(Cl)c(Cl)c3)c(N)c2C1c1ccccc1 (racemic) [Compound 195]  126.67 ± 23.09
2. CCCCNC(=O)C1=C(C)Nc2sc(C(=O)c3ccc(Cl)c(Cl)c3)c(N)c2C1c1ccccc1 (racemic) [Compound 196]  121.93 ± 25.12

Same assay, conditions: Table 5, 72 hours, fitted maximum, percent fraction of low control (vehicle), in %

`COCCOCN1C(C)=C(C(C)=O)C(c2ccccc2)c2c1sc(C(=O)c1ccccc1)c2N` (racemic) [Compound 209] was tested, and the “Max Plateau” value was 192.74.
